Data taken from US12180476B2, “Use of PIWI-interacting RNA piR-hsa-211106” (Qingdao University, priority 2022, dated 2024).
Entries after “also recorded” stand apart in the source; their conditions may differ.

Key:
[1] = system: lung adenocarcinoma cells A549; experiment: Edu staining proliferation assay; format: cell-based; conditions: after transfection for two days, FIGS. 2 and 3
Method: (§1) This example related to a process of transfecting an agonist to lung adenocarcinoma cells: after the lung adenocarcinoma cells were passaged to a cell density of about 30-50%, the agonist was transfected to the lung adenocarcinoma cells by lipo3000. 5 μl (100 pmol) of the agonist was added to an EP tube containing 95 μl of a DMEM medium by pipetting and mixing, 5 μl of lipo3000 was added to the EP tube containing 95 μl of the DMEM medium by pipetting and mixing, the two materials were mixed at a volume ratio of 1:1 to form a transfection mixture, the mixture was allowed to stand at a room temperature for 20 min and added into a culture plate, and an analysis at gene and protein levels was conducted after 48 h. […]

[2] = system: lung adenocarcinoma cells HCC2279; experiment: Edu staining proliferation assay; format: cell-based; conditions: after transfection for two days, FIGS. 2 and 3
Method: as §1

[3] = system: lung adenocarcinoma cells A549; experiment: Transwell chamber migration assay; format: cell-based; conditions: after transfection for two days, 24 h migration, FIGS. 4 and 5
Method: (§2) This example related to a process of transfecting an agonist to lung adenocarcinoma cells: after the lung adenocarcinoma cells were passaged to a cell density of about 30-50%, the agonist was transfected to the lung adenocarcinoma cells by lipo3000. 5 μl (100 pmol) of the agonist was added to an EP tube containing 95 μl of a DMEM medium by pipetting and mixing, 5 μl of lipo3000 was added to the EP tube containing 95 μl of the DMEM medium by pipetting and mixing, the two materials were mixed at a volume ratio of 1:1 to form a transfection mixture, the mixture was allowed to stand at a room temperature for 20 min and added into a culture plate, and an analysis at gene and protein levels was conducted after 48 h.

[4] = system: lung adenocarcinoma cells HCC2279; experiment: Transwell chamber migration assay; format: cell-based; conditions: after transfection for two days, 24 h migration, FIGS. 4 and 5
Method: as §2

[5] = system: lung adenocarcinoma cells A549; experiment: Scratch experiment migration assay; format: cell-based; conditions: after transfection for two days, 0 h and 24 h after scratching, FIGS. 6 and 7
Method: as §2

[6] = system: lung adenocarcinoma cells HCC2279; experiment: Scratch experiment migration assay; format: cell-based; conditions: after transfection for two days, 0 h and 24 h after scratching, FIGS. 6 and 7
Method: as §2

A549 cells = experiment: Tumor-bearing model of a nude mouse, intratumoral treatment; format: in vivo, BALB/c nude mice
Method: This example related to a process of constructing a tumor-bearing model of a nude mouse: 3- to 4-week-old BALB/c nude mice (SiPeiFu Laboratory Animal Technology Co., Ltd) were taken and used for an experiment after adapting to local conditions for 1 week, 2×10^7 of A549 cells were injected subcutaneously into left and right armpits of the mice, and when an implanted tumor reached 50 mm^3, a drug treatment was conducted.
This example related to a drug-targeted treatment process of a tumor-bearing model of a nude mouse: • The nude mice were divided into two groups: a cisplatin experimental group and a normal saline control group, with 5 nude mice in each group; • The nude mice in the experimental group were injected intraperitoneally with cisplatin (5 mg/kg body weight/week), 50 μM of a PIWI-interacting RNA piR-hsa-211106 agonist was injected directly into a tumor on a right side and piR-NC (Shanghai GenePharma Co., Ltd) was injected into a tumor on a left side as a control group of the cisplatin treatment group; • An equal volume of normal saline was injected intraperitoneally into the nude mice in the control group, the PIWI-interacting RNA piR-hsa-211106 agonist was used to treat the tumor as above, the PIWI-interacting RNA piR-hsa-211106 agonist was used for treatment every other day for 28 days, and the tumor volume was measured once a week; the mice were sacrificed at an end of the experiment, and xenografts were peeled off and photographed.

[7] = system: lung adenocarcinoma cells A549; experiment: CCK8 proliferation activity assay; format: cell-based; conditions: 0, 1, 2, 3, and 4 days after transfection, FIG. 1
Method: as §2

[8] = system: lung adenocarcinoma cells HCC2279; experiment: CCK8 proliferation activity assay; format: cell-based; conditions: 0, 1, 2, 3, and 4 days after transfection, FIG. 1
Method: as §2

pyruvate carboxylase [9] = experiment: Western blot analysis of protein expression level in lung adenocarcinoma cells; format: cell-based; conditions: GAPDH internal reference, FIG. 12
Method: as §1
the protein samples were separated by an SDS-PAGE electrophoresis, the separated proteins were transferred to a PVDF membrane, the membrane was blocked with 5% powdered skim milk for 1 h, the membrane was washed, an incubation with a primary antibody (PC, GAPDH) was conducted overnight in a 4° C. refrigerator, the membrane was washed, an incubation with a secondary antibody was conducted at room temperature for 1 h, the membrane was washed, a target band was obtained by ECL chemiluminescence method, the band was subjected to a grayscale scanning by using a Quantity One software and a GAPDH internal reference was used for correction.

pyruvate carboxylase [10] = experiment: qRT-PCR analysis of gene expression level in lung adenocarcinoma cells; format: cell-based; conditions: FIG. 11
Method: as §1

pyruvate carboxylase [11] = biological target: T1, pyruvate carboxylase (Homo sapiens, UniProt P11498); experiment: Biotin-coupled probe RNA pull-down assay with western blot; format: binding; conditions: biotinylated piR-hsa-211106 probe, lung adenocarcinoma cell lysate; FIG. 10
T1 construct: 1×10^7 lung adenocarcinoma cells were harvested, lysed and subjected to an ultrasonic treatment; endogenous in cells
T1 sequence (P11498 21-1178): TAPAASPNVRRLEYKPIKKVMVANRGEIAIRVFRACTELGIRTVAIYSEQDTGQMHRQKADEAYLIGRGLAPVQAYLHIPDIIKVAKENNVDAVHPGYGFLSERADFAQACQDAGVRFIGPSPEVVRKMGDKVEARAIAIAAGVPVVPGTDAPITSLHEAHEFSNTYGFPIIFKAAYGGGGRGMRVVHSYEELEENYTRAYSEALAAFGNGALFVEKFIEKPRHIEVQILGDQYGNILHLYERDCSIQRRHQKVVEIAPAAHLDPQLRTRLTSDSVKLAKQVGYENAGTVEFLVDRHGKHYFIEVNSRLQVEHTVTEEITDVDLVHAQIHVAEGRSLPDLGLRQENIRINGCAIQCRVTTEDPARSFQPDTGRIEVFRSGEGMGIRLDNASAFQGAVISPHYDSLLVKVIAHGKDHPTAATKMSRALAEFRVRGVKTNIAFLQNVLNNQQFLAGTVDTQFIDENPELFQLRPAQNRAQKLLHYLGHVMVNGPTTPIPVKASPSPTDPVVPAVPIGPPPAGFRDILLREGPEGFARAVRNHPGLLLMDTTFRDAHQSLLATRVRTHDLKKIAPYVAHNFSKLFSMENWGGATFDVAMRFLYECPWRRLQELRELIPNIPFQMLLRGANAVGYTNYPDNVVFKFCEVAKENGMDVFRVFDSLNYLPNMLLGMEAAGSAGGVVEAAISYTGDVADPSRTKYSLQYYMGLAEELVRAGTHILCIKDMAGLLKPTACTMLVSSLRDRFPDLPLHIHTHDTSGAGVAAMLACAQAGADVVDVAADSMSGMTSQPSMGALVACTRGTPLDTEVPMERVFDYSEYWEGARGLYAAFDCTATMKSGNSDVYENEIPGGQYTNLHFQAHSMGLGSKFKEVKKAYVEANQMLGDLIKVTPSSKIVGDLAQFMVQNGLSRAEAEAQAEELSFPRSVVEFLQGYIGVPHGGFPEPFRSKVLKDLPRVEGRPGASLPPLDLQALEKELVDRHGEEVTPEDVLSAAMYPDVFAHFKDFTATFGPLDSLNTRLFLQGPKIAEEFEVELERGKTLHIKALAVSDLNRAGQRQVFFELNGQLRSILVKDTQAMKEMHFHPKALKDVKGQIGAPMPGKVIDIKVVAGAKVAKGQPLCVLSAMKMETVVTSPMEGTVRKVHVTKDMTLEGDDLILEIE

[12] = system: lung adenocarcinoma cells A549; experiment: Apoptosis by flow cytometry (Annexin V-FITC/PI); format: cell-based; conditions: after transfection for two days, FIGS. 8 and 9
Method: (§3) This example related to a process of transfecting an agonist to lung adenocarcinoma cells: after the lung adenocarcinoma cells were passaged to a cell density of about 30-50%, the agonist was transfected to the lung adenocarcinoma cells by lipo3000. […]
(§4) This example related to a detection process of apoptosis of lung adenocarcinoma cells A549 and HCC2279 by a flow cytometry: the lung adenocarcinoma cells were cultured, the cells in the experimental group were transfected with a PIWI-interacting RNA piR-hsa-211106, after transfection for two days, apoptosis was detected by Annexin V-FITC/PI (Shanghai YEASEN Biotechnology Co., Ltd): • (1) after the lung adenocarcinoma cells were digested with a trypsin without EDTA, centrifugation was conducted at 300 g and 4° C. for 5 min and the cells were collected; • (2) the cells were washed twice with a pre-cooled PBS, centrifugation was conducted at 300 g and 4° C. for 5 min each time and 1-5×10^5 cells were collected; • (3) the PBS was pipetted and discarded, and 1× binding buffer was added to resuspend the cells; • (4) annexin V-FITC and a PI staining solution were added, gentle mixing was conducted, and reaction was conducted in dark at room temperature for 10-15 min; and • (5) 1× binding buffer was added, even mixing was conducted, an obtained mixture was placed on ice, and detection was conducted with the flow cytometry within 1 h.

[13] = system: lung adenocarcinoma cells HCC2279; experiment: Apoptosis by flow cytometry (Annexin V-FITC/PI); format: cell-based; conditions: after transfection for two days, FIGS. 8 and 9
Method: as §3, §4

[14] = injected into tumors in nude mice, versus control groups

piR-hsa-211106: PIWI-interacting RNA, SEQ ID NO:1 TCCGGCTCGAAGGACTTCGTCTGTAATTTT; used as double-strand agonist with cholesterol, thio skeleton and methoxy modifications (cholesterol, phosphorothioate and 2'-OMe modifications, pattern not given here, duplex)
proportion of proliferating cells (Edu staining) [1]: significantly inhibit the growth
proportion of proliferating cells (Edu staining) [2]: significantly inhibit the growth
migration ability (Transwell chamber, migrated cells counted) [3]: significantly inhibit the migration ability
migration ability (Transwell chamber, migrated cells counted) [4]: significantly inhibit the migration ability
migration ability (scratch experiment, relative migration rate) [5]: significantly inhibit the migration ability
migration ability (scratch experiment, relative migration rate) [6]: significantly inhibit the migration ability
therapeutic effect compared with positive control cisplatin (A549 cells; 50 μM agonist injected directly into tumor every other day for 28 days, cisplatin 5 mg/kg body weight/week intraperitoneally, FIGS. 13, 14 and 15): comparable to that of the positive control group treated with cisplatin; also recorded: comparable therapeutic effect as the positive control drug cisplatin
growth of lung adenocarcinoma in vivo (A549 cells; A549 tumor in nude mice, agonist intratumoral every other day for 28 days): capable of inhibiting growth of lung adenocarcinoma in vivo
effect in combination with cisplatin (A549 cells; agonist intratumoral plus cisplatin 5 mg/kg body weight/week intraperitoneally, 28 days): increases chemical sensitivity of the chemotherapeutic drug cisplatin and has a synergistic effect
tumor volume (A549 cells; [14]): smaller than those of the control groups
tumor weight (A549 cells; [14]): smaller than those of the control groups
cell proliferation activity (OD value at 450 nm, CCK8) [7]: significantly inhibit the proliferation
cell proliferation activity (OD value at 450 nm, CCK8) [8]: significantly inhibit the proliferation
expression of pyruvate carboxylase at a protein level (WB) (pyruvate carboxylase [9]): can regulate an expression of a pyruvate carboxylase at a protein level
expression of pyruvate carboxylase (gene expression level, qRT-PCR) (pyruvate carboxylase [10]): significantly inhibit an expression
binding to pyruvate carboxylase (RNA pull-down) (pyruvate carboxylase [11]): binds to the PC; also recorded: can bind to a pyruvate carboxylase
apoptosis (flow cytometry) [12]: significantly cause the apoptosis
apoptosis (flow cytometry) [13]: significantly cause the apoptosis
